Measured values reported in US20170369807A1, “Ionic Liquid, Lubricant, and Magnetic Recording Medium” (Dexerials Corporation, priority 2016, published 2017).

Tests used:
[1] = in acetonitrile; cited from earlier work
[2] = Measurement of thermal stability (TG/DTA); conditions: for Weight reduction temperature 5% / Weight reduction temperature 10% / Weight reduction temperature 20%: TG/DTA, 30° C. to 600° C., 10° C./min, air 200 mL/min; for thermal stability (in words): compared with Z-DOL and Z-TETRAOL
[3] = Solubility test to solvents (visual observation); conditions: ultrasonic waves 5 minutes, left 1 day, visually observed, listed as Example 3A, ammonium
Method: To a predetermined amount of Vertrel XF, n-hexane, or ethanol, the ionic liquid was added. Ultrasonic waves were applied to the resultant mixture for 5 minutes, followed by leaving the mixture to stand for 1 day. The solubility was visually observed.
After applying ultrasonic waves to the resultant for 5 minutes, the resultant was left to stand for 1 day. Thereafter, the solubility was visually observed and evaluated based on the following evaluation criteria.
Similarly, after applying ultrasonic waves to the resultant for 5 minutes, the resultant was left to stand for 1 day. Thereafter, the solubility was visually observed and evaluated based on the following evaluation criteria.
Note that, the solubility was visually observed, and it was judged as soluble when it was transparent. Moreover, it was judged as not soluble (insoluble) when it was opaque or insoluble components were observed.

Compound | pKa [1] | Weight reduction temperature 5% [2] [°C] | Weight reduction temperature 10% [2] [°C] | Weight reduction temperature 20% [2] [°C] | other results
O=S(=O)(NS(=O)(=O)C(F)(F)C(F)(F)C(F)(F)C(F)(F)F)C(F)(F)C(F)(F)C(F)(F)C(F)(F)F [bis(nonafluorobutanesulfonyl)imide] | 0.0 | – | – | – | –
F[B-](F)(F)F.[H+] [tetrafluoroboric acid] | 1.8 | – | – | – | –
nonafluorobutanesulfonic acid-trimethyloctadecyl ammonium [Comp. Ex. 5A] | – | 340.5 | 356.2 | 371.9 | thermal stability (in words) [2]: high
CCCCCCCCCCCCN(CCCCCCCCCCCC)CCCCCCCCCCCC [Ex. 3A, trifluoromethanesulfonic acid-N,N,N-tridodecyl ammonium] | – | – | – | – | Solubility Fluorine-based solvent ([3]; Vertrel XF [CF3(CHF)2CF2CF3], 25° C.): ≥ 0.2 % by mass; Solubility Ethanol ([3]; ethanol): ≥ 0.5 % by mass; Solubility n-Hexane ([3]; n-hexane, 25° C.): ≥ 0.5 % by mass; thermal stability improved compared with Z-DOL ([2]; compared with Z-DOL (Comparative Example 7C)): ≥ 120 °C; thermal stability improved compared with Z-TETRAOL ([2]; compared with Z-TETRAOL (Comparative Example 8C)): ≥ 45 °C
O=S(=O)(O)C(F)(F)F [trifluoromethanesulfonic acid] | 0.7 | – | – | – | –
nonafluorobutanesulfonic acid-N-methyloctadecyl ammonium [Comp. Ex. 4A] | – | 346.8 | 364.0 | 381.1 | thermal stability (in words) [2]: high
pentadecafluorooctanoic acid octadecyl ammonium [Comp. Ex. 6A] | – | 206.9 | 215.8 | 223.4 | thermal stability (in words) [2]: lacked thermal stability
CCCCCCCCCCCCCCCCCCN.O=S1(=O)NS(=O)(=O)C(F)(F)C(F)(F)C1(F)F [Comp. Ex. 3A, hexafluorocyclopropane-1,3-bis(sulfonyl)imide-octadecyl ammonium] | – | 329.6 | 347.0 | 365.1 | –
O=S1(=O)NS(=O)(=O)C(F)(F)C(F)(F)C1(F)F [hexafluorocyclopropane-1,3-bis(sulfonyl)imide] | −0.8 | – | – | – | –
CCCCCCCCCCCCCCCCCCN.O=S(=O)(NS(=O)(=O)C(F)(F)C(F)(F)C(F)(F)C(F)(F)F)C(F)(F)C(F)(F)C(F)(F)C(F)(F)F [Comp. Ex. 2A, bis(nonafluorobutanesulfonyl)imide-octadecyl ammonium] | – | 311.8 | 329.8 | 348.0 | –
perfluorocyclopropane sulfoimide | −0.8 | – | – | – | –
bis(nonafluorobutanesulfonyl)imide-N,N-dimethyl-dodecyl ammonium [Ex. 2A] | – | 308.5 | 331.5 | 353.4 | –
CCCCCCCCCCCCCCCCCCN(C)C.O=S(=O)(NS(=O)(=O)C(F)(F)C(F)(F)C(F)(F)C(F)(F)F)C(F)(F)C(F)(F)C(F)(F)C(F)(F)F [Ex. 1A, bis(nonafluorobutanesulfonyl)imide-N,N-dimethyl-octadecyl ammonium] | – | 315.7 | 337.0 | 356.7 | –
O=C(O)C(F)(F)C(F)(F)C(F)(F)C(F)(F)C(F)(F)C(F)(F)C(F)(F)F [pentadecafluorooctanoic acid] | 12.7 | – | – | – | –
O=S(=O)(O)C(F)(F)C(F)(F)C(F)(F)C(F)(F)F [nonafluorobutanesulfonic acid] | 0.7 | – | – | – | –
nonafluorobutanesulfonic acid-octadecyl ammonium [Comp. Ex. 1A] | – | 338.8 | 355.2 | 370.4 | thermal stability (in words) [2]: high
O=[N+]([O-])O [nitric acid] | 9.4 | – | – | – | –
